Source: US20200239530A1, “COMPOUNDS AND METHODS OF MODULATING PROTEIN DEGRADATION” (Vividion Therapeutics, Inc., priority 2017, published 2020)
Like-named read-outs stand apart in the source and are kept apart here. One block for each compound: values may come before it.

Key:
Assay in all cases: Cysteine liganding, probe competition
Assay type in all cases: binding
[1] = molecular target: T1, UniProt O15524 (Homo sapiens, UniProt O15524); conditions: for inhibition at 500 µM: read-out: percent_inhibition
T1 construct: 200 μL of lysate containing 5 mg/ml proteome was treated with 2 μL of 100× compound stock; endogenous in cells
T1 sequence (O15524 1-211): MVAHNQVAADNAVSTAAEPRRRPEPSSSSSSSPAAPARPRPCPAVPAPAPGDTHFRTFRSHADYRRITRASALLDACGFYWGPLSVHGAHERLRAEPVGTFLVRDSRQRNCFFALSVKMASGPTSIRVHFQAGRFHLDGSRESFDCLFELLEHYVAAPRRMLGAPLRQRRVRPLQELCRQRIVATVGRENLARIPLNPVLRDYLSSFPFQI
Excerpt: (§1) The following 96-well sample prep protocol was used for sample preparation.

[2] = molecular target: T2, UniProt Q3KNV8 (Homo sapiens, UniProt Q3KNV8)
T2 construct: Cells were resuspended in cold PBS on ice and sonicated with a probe sonicator to achieve lysis; endogenous in cells
T2 sequence (Q3KNV8 1-242): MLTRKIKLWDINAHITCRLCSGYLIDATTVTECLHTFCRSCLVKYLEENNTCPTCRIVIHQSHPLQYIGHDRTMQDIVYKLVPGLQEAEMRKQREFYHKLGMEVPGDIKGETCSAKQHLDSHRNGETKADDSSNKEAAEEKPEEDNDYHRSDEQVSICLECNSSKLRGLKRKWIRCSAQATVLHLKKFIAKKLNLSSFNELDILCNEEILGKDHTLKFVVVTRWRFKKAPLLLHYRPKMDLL
Excerpt: as §1

[3] = molecular target: T3, UniProt Q86WC4 (Homo sapiens, UniProt Q86WC4)
T3 construct: Cells were resuspended in cold PBS on ice and sonicated with a probe sonicator to achieve lysis; endogenous in cells
T3 sequence (Q86WC4 32-334): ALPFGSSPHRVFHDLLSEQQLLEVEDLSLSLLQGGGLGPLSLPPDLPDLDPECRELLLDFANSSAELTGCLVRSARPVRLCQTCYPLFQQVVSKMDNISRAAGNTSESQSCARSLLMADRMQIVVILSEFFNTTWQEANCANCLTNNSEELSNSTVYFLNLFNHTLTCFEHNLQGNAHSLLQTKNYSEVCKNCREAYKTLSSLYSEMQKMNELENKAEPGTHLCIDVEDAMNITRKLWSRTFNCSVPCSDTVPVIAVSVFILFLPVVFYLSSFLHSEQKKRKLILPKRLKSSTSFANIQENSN
Excerpt: as §1

[4] = molecular target: T4, UniProt Q96G25 (Homo sapiens, UniProt Q96G25)
T4 construct: Cells were resuspended in cold PBS on ice and sonicated with a probe sonicator to achieve lysis; endogenous in cells
T4 sequence (Q96G25 1-268): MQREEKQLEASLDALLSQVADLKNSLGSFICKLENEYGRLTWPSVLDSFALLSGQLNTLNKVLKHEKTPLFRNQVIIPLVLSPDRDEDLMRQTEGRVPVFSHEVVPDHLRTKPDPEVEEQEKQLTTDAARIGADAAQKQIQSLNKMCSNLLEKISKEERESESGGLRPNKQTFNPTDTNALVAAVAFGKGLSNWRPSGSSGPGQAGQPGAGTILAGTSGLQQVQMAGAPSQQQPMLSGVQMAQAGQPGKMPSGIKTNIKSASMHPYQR
Excerpt: as §1

[5] = molecular target: T5, UniProt Q9BUL5 (Homo sapiens, UniProt Q9BUL5)
T5 construct: 200 μL of lysate containing 5 mg/ml proteome was treated with 2 μL of 100× compound stock; endogenous in cells
Excerpt: as §1

[6] = molecular target: T6, UniProt Q9BY78 (Homo sapiens, UniProt Q9BY78); conditions: for inhibition at 500 µM: read-out: percent_inhibition
T6 construct: 200 μL of lysate containing 5 mg/ml proteome was treated with 2 μL of 100× compound stock; endogenous in cells
T6 sequence (Q9BY78 1-433): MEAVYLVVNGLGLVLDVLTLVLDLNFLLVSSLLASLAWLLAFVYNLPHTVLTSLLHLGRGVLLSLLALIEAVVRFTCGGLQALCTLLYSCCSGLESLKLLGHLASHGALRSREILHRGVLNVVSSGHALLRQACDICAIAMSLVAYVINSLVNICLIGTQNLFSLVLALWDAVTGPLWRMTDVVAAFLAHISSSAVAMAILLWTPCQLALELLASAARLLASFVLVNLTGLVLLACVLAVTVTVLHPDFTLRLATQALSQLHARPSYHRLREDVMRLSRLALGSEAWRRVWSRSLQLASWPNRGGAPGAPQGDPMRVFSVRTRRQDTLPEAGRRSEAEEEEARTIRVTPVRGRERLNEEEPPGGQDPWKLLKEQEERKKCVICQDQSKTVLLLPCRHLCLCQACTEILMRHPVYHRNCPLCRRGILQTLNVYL
Excerpt: as §1

[7] = molecular target: T7, UniProt Q9BZY9 (Homo sapiens, UniProt Q9BZY9)
T7 construct: 200 μL of lysate containing 5 mg/ml proteome was treated with 2 μL of 100× compound stock; endogenous in cells
T7 sequence (Q9BZY9 1-425): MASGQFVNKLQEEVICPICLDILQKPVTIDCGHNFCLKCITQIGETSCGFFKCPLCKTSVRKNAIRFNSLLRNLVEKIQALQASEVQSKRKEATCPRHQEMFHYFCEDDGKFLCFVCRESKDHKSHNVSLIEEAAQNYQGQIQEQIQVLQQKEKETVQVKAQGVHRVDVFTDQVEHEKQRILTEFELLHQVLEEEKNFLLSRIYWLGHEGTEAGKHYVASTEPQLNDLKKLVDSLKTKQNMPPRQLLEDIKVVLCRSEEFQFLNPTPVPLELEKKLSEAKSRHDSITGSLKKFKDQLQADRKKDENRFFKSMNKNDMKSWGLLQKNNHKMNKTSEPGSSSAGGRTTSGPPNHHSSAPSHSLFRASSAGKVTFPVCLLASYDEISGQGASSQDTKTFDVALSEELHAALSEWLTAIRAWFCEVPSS
Excerpt: as §1

[8] = molecular target: T8, UniProt Q9C035 (Homo sapiens, UniProt Q9C035)
T8 construct: 200 μL of lysate containing 5 mg/ml proteome was treated with 2 μL of 100× compound stock; endogenous in cells
Excerpt: as §1

[9] = 100 uM, read-out: KB02_100 uM_percent_inhibition
[10] = read-out: KB02_500 uM_percent_inhibition
[11] = 100 uM, read-out: percent inhibition
[12] = 100 uM, read-out: KB05_100 uM_percent_inhibition
[13] = 500 uM, read-out: KB05_500 uM_percent_inhibition
[14] = read-out: KB05_500 uM_percent_inhibition

T5 sequence (Q9BUL5 whole entry, change not shown): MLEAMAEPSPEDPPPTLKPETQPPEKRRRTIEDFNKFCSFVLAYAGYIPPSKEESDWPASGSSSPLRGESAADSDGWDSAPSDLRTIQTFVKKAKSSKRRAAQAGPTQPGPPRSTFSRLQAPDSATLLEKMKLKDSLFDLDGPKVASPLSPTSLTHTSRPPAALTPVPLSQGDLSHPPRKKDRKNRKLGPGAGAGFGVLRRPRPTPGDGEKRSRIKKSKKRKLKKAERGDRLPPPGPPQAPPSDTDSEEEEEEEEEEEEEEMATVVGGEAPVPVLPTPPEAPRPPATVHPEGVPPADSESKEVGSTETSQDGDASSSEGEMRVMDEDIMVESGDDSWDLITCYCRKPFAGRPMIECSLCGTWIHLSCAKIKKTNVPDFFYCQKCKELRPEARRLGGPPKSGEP
T8 sequence (Q9C035 whole entry, change not shown): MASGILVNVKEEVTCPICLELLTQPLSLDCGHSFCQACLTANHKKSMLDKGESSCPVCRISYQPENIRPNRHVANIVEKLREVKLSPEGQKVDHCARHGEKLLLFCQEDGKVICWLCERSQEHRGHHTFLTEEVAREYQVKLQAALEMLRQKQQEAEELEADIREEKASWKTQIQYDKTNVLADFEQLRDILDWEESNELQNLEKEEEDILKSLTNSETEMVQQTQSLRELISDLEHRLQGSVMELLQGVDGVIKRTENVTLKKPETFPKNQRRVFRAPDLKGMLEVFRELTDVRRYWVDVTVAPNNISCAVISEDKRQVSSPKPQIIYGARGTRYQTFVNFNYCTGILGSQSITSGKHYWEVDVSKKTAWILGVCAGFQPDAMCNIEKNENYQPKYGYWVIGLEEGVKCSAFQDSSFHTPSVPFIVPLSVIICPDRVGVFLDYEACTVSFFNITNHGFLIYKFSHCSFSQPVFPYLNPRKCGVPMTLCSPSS

SMILES: COc1ccc2c(c1)CCCN2C(=O)CCl [KB02]
inhibition at 500 µM [1]: 38%
inhibition at 100 µM [2, 9]: 19%
KB02_500 uM_percent_inhibition ([2]; 500 uM): 57%
inhibition at 500 µM ([2]; 500 uM, read-out: KB02_500 uM_percent_inhibition): 52%
inhibition at 500 µM [3, 10]: 68%
percent inhibition ([4]; 100 uM): 31%
inhibition at 100 µM [4, 11]: 29%
inhibition at 100 µM [5, 9]: 13%
inhibition at 500 µM [6]: 31%
inhibition at 500 µM [7, 10]: 68%
inhibition at 100 µM ([8]; read-out: KB02_100 uM_percent_inhibition): 13%

inhibition at 500 µM [1]: 56%
inhibition at 100 µM [2, 12]: 14%
KB05_500 uM_percent_inhibition ([2]; 500 uM): 50%
inhibition at 500 µM [2, 13]: 58%
inhibition at 500 µM [3, 14]: 66%
inhibition at 100 µM [4, 11]: 10%
percent inhibition ([4]; 500 uM): 40%
inhibition at 500 µM ([4]; 500 uM, read-out: percent inhibition): 31%
inhibition at 100 µM [5, 12]: 29%
KB05_500 uM_percent_inhibition ([5]; 500 uM): 30%
inhibition at 500 µM [5, 13]: 27%
inhibition at 500 µM [6]: 30%
inhibition at 500 µM [7, 14]: 71%
inhibition at 100 µM ([8]; read-out: KB05_100 uM_percent_inhibition): 4%
SMILES: C=CC(=O)N(c1ccccc1)c1ccc(Br)cc1 [KB05]

SMILES: O=C(CCl)Nc1cc(C(F)(F)F)cc(C(F)(F)F)c1 [KBO3]
percent_inhibition ([1]; 500 uM): 35%
KB03_100 uM_percent_inhibition ([2]; 100 uM): 6%
KB03_500 uM_percent_inhibition ([3]; 500 uM): 58%
percent inhibition ([4]; 100 uM): 8%
KB03_100 uM_percent_inhibition ([5]; 100 uM): 16%
percent_inhibition ([6]; 500 uM): 54%
KB03_500 uM_percent_inhibition ([7]; 500 uM): 48%
KB03_100 uM_percent_inhibition ([8]; 100 uM): 18%
